Like-named read-outs stand apart in the source and are kept apart here.
Experiments:
[1] = tested on: MSI-H colorectal cancer SW48 cell line; test: 2D anti-proliferative activity, MSI-H SW48 cells (CTG, 5 days); type: cell-based; details: for inhibition at 38.15 pM: 0.038146973 nM; for inhibition at 0.000152588 µM: 0.152587891 nM; for inhibition at 0.000610352 µM: 0.610351563 nM; for inhibition at 0.00244141 µM: 2.44140625 nM; for inhibition at 0.00976562 µM: 9.765625 nM; for inhibition at 0.0390625 µM: 39.0625 nM; for inhibition at 0.15625 µM: 156.25 nM; for inhibition at 0.625 µM: 625 nM; for inhibition at […]: 2500 nM; for inhibition at 10 µM: 10000 nM
Outline: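 SW48 cells in RPMI 1640/10% FBS were exposed to serially varied compound concentrations for 5 days at 37 °C, 5% CO2. Viability was read as ATP-dependent CellTiter-Glo luminescence after 30 min.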

[2] = tested on: MSS colorectal cancer HT-29 cell line; test: 2D anti-proliferative activity, MSS HT-29 cells (CTG, 5 days); type: cell-based; details: Homo sapiens, 120 h
Outline: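 HT-29 cells in McCoy's 5A with 10% FBS exposed to compound for 5 days at 37° C, 5% CO2 in 384-well format. Viable cells read as ATP luminescence (CellTiter-Glo) after 30 min.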

WRN helicase = WRN helicase (Homo sapiens, UniProt Q14191); test: WRN helicase hydrolysis/unwinding of double-stranded DNA (fluorescence); type: biochemical
Sequence of WRN helicase (Q14191 whole entry): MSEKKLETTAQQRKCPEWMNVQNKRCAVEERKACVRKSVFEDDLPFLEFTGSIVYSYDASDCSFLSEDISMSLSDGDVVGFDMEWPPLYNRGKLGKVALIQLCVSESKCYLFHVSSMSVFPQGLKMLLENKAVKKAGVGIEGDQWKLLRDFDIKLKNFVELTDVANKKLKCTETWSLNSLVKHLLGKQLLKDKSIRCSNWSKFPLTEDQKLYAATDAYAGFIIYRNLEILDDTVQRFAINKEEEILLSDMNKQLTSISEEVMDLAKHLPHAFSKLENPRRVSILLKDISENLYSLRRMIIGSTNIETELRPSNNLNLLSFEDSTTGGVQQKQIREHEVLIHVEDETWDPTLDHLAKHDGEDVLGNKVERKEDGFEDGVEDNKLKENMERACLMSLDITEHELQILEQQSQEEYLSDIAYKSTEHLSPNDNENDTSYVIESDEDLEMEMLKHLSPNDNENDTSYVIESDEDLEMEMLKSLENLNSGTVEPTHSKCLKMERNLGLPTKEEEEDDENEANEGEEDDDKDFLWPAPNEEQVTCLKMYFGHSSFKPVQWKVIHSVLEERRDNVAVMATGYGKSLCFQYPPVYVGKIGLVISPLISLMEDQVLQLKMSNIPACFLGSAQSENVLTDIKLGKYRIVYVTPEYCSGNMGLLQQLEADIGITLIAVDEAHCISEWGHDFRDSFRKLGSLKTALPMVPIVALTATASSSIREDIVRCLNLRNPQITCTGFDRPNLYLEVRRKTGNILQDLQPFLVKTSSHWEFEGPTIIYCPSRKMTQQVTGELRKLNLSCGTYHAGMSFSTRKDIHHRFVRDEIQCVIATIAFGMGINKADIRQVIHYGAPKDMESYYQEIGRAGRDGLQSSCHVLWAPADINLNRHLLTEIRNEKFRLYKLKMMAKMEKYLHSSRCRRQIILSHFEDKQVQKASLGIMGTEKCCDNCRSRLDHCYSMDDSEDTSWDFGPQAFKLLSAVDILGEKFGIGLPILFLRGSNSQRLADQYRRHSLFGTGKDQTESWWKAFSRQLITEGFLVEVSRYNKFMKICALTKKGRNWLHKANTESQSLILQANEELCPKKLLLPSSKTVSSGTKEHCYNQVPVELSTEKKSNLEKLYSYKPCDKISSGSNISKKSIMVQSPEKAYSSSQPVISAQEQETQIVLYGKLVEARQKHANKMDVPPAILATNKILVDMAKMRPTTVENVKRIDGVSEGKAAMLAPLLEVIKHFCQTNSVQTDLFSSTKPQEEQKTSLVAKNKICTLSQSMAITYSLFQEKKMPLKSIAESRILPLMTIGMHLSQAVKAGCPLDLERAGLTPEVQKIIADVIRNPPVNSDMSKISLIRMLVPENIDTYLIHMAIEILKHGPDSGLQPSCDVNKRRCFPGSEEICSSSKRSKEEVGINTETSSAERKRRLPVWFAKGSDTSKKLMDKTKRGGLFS
Outline: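 Human WRN helicase preincubated 30 min in the dark with compound (top final concentration 10 μM, 4-fold dilutions). Reaction started with 19-bp double-stranded DNA labelled 3′-TAMRA/5′-BHQ2, run 60 min at room temperature; IC50 from fluorescence change (Ex530/Em590) versus DMSO blank.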

[3] = tested on: SW 48 (MSI-H) colorectal cancer cells; test: In vivo pharmacodynamic assay, SW48 xenograft in nude mice; design: species or system BALB/c nude mice; details: 50 mg/kg, QD, oral
Method: In vivo pharmacodynamic assay in BALB/c nude mice. Details are as follows:
SW 48 (MSI-H) colorectal cancer cells were cultured (L15 medium with 10% fetal bovine serum), and then inoculated into 6-8-week old female BALB/c nude mice (weighing about 20 g), wherein all mice were inoculated subcutaneously. The mice were cultured in an SPF-grade experimental environment, and all mice had free access to commercially certified standard diets. When the average tumor volume of the mice grew to about 150 mm^3, the test compound was orally administered daily. The dosage was as follows: blank group vehicle (10% HP-β-CD aqueous solution, pH-7). The dosage of the administration group was 120 mg/kg, 50 mg/kg, or 20 mg/kg, once a day. The tumor volume was measured with a two-dimensional caliper three times a week, and the animals were weighed every day. […] The tumor volume was calculated using the formula: V=½a*b^2, where a represents the long diameter of the tumor, and b represents the short diameter of the tumor.

[4] = Liver microsome stability test; type: in vitro ADME; details: human liver microsomes 0.5 mg/mL, compound 1 μM, NADPH 1 mM, 60 minutes
[5] = Homo sapiens, read-out: Average value/ Inhibition rate
[6] = Homo sapiens, read-out: Test 1/ Inhibition rate
[7] = Homo sapiens, read-out: Test 2/ Inhibition rate

With `CCc1c(N2CCN(C(=O)c3ncnc(C)c3O)CC2)c(=O)n2nc(C3=CCOCC3)nc2n1CC(=O)Nc1ccc(C(F)(F)F)c2ccoc12` [Compound H22] the “inhibitory activity on SW48 cells” value ([1]; 39 nM) was “high inhibitory activity”, the inhibition at 38.15 pM [1, 5] was -4.19% and the inhibition at 38.15 pM [1, 6] was -1.57%. The inhibition at 38.15 pM [1, 7] was -6.81%, the inhibition at 0.000152588 µM [1, 5] was 0.206% and the inhibition at 0.000152588 µM [1, 6] was -0.184%. For the same compound, the inhibition at 0.000152588 µM [1, 7] was 0.596%, the inhibition at 0.000610352 µM [1, 5] was -2.48% and the inhibition at 0.000610352 µM [1, 6] was -1.27%. It also gave an inhibition at 0.000610352 µM [1, 7] of -3.7%, an inhibition at 0.00244141 µM [1, 5] of -0.303% and an inhibition at 0.00244141 µM [1, 6] of 2.69%. The inhibition at 0.00244141 µM [1, 7] was -3.3%, the inhibition at 0.00976562 µM [1, 5] was -6.3% and the inhibition at 0.00976562 µM [1, 6] was -5.49%. The inhibition at 0.00976562 µM [1, 7] was -7.12%, the inhibition at 0.0390625 µM [1, 5] was 29.2% and the inhibition at 0.0390625 µM [1, 6] was 28.4%. For the same compound, the inhibition at 0.0390625 µM [1, 7] was 30%, the inhibition at 0.15625 µM [1, 5] was 98% and the inhibition at 0.15625 µM [1, 6] was 98.4%. It also gave an inhibition at 0.15625 µM [1, 7] of 97.6%, an inhibition at 0.625 µM [1, 5] of 98.1% and an inhibition at 0.625 µM [1, 6] of 98.3%. For the same compound, the inhibition at 0.625 µM [1, 7] was 97.9%, the inhibition at […] [1, 5] was 99.6% and the inhibition at […] [1, 6] was 99.9%. For the same compound, the inhibition at […] [1, 7] was 99.2%, the inhibition at 10 µM [1, 5] was 101% and the inhibition at 10 µM [1, 6] was 102%. For the same compound, the inhibition at 10 µM [1, 7] was 101%, the IC50 ([1]; Homo sapiens, 120 h, 5 days) was 47 nM and the IC50 [2] was greater than 10000 nM. For the same compound, the IC50 (WRN helicase) was 1.4 nM, the TGI [3] was 104% and the “Tumor volume (mm^3)-D 1” value ([3]; day 1) was 162 mm^3. For the same compound, the “Tumor volume (mm^3)-D 21” value ([3]; day 21) was 89 mm^3, the CLint scaled at 1 μM [4] was less than 6.8 mL/min/kg and the microsomal CLint at 1 μM ([4]; read-out: Human Clint μL/min/mg Protein) was less than 5.4 µL/min/mg.
